According to paper PMC6105673 (Nature Communications, 2018):
No end group written: not given here. *: point of attachment. Biotin = O=C1N[C@H]2[C@H](CS[C@H]2CCCCC(=O)*)N1

Assays:
[1] = biological target: T1, pVHL-elongin B-elongin C (VBC) complex (Homo sapiens, UniProt P40337+Q15369+Q15370); assay: Biolayer interferometry kinetic analysis of VBC complex binding to biotinylated HIF-2α peptides; conditions: for ka (association rate): purified VBC; for binding to VBC compared to WT (in words): HIF-2αOH peptides (523–541)
T1 construct: a construct encoding N-terminal GST-tagged pVHL19 (54–213); GST (N, cleaved yes); made in house; host or cells: BL21(DE3) E. coli
Protocol: Absorbance was read at 450 nm. […] The data were analyzed based on a 1:1 binding model using the BLItz Pro software with the fitted curves shown as gray lines. […] Values represent mean of three experiments conducted with independently purified protein ± SEM. * denotes uncharacterized band
Multiple concentrations of purified VBC complex were diluted in kinetics buffer and allowed to associate with immobilized peptide over 120 s. Subsequently, the SA-BLI probe was immersed into kinetics buffer for 120 s to allow for dissociation. The data were analyzed, step corrected, reference corrected, and fit to a global 1:1 binding model. Kd, ka, and kd were calculated using the BLItz Pro software.

HIS6-PHD2 (181–426) = assay: In vitro hydroxylation assay (HIS6-PHD2 treatment, then IVTT pVHL pull-down); format: biochemical; conditions: unmodified biotinylated peptides, 15 μg/mL HIS6-PHD2 (181–426), 1 h room temperature, then IVTT HA-VHL30 under stringent buffer
Protocol: Considering that prolyl hydroxylation is indispensable for HIF-2α binding to pVHL, we next examined the notion that the A530V mutation negatively influences hydroxylation of HIF-2α via PHD2, which would attenuate HIF-2α A530V binding affinity for pVHL. We conducted an in vitro hydroxylation assay utilizing unmodified peptides (amino acids 523–542) incubated with purified HIS6-PHD2 (catalytic core, amino acids 181–426).
Fig. 5 A subset of class 1 mutations specifically disrupts PHD2-mediated hydroxylation. a, b Biotinylated HIF-2α peptides (residues 523–542) were immobilized on streptavidin- agarose beads and incubated with HIS6-PHD2 for 1 h at room temperature prior to incubation with in vitro transcribed and translated (IVTT) pVHL. Streptavidin beads were pulled down (PD) and levels of HA-tagged pVHL were visualized via immmunoblotting (IB). c HEK293a cells were co-transfected with FLAG-VHL and HA-HIF-2α constructs. FLAG was immunoprecipitated (IP) and levels of HA-tagged HIF-2α were visualized via immunoblotting (IB). * denotes uncharacterized band
The in vitro pVHL-HIF-2α hydroxylation assay was performed according to a previously published protocol. 5 μg of biotinylated HIF-2α peptide was immobilized on streptavidin-agarose beads. Subsequently, peptides were incubated with 15 μg/mL HIS6-PHD2 (181–426) in 500 μL of 40 mM HEPES pH 7.4, 80 mM KCl, 5 mM a-ketoglutarate, 2 mM ascorbic acid, 100 μM FeCl2 tetrahydrate solution at room temperature for 1 h. FeCl2 was stored under anoxic conditions to prevent oxidation. Following hydroxylation, beads were washed 5x with EBC buffer and peptides were incubated with IVTT HA-VHL30 under the stringent buffer conditions described above.

[2] = BLItz biolayer interferometry, peptide (523–541) immobilized, global 1:1 model, mean of three experiments ± SEM

T1 sequence (P40337 54-213): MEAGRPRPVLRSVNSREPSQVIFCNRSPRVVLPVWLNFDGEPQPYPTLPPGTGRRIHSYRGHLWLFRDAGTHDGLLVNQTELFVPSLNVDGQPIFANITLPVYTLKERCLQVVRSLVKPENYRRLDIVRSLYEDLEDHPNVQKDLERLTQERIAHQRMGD
T1 sequence (Q15370 whole entry partner): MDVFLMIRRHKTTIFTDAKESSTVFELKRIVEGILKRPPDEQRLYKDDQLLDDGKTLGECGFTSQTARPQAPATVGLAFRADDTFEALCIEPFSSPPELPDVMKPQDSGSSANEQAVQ
T1 sequence (Q15369 17-112 partner limits assumed): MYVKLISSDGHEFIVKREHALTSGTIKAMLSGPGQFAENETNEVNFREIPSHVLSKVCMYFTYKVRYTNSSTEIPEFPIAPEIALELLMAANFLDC

Row | Compound | ka (association rate) ([1]; BLI, 1:1 model) [M/s] | ka (association rate) [1, 2] | binding to pVHL following HIS6-PHD2 treatment (immunoblot, in words) (HIS6-PHD2 (181–426)) | binding to VBC compared to WT (in words) ([1]; BLI)
1 | CC[C@H](C)[C@H](NC(=O)[C@H](Cc1ccc(O)cc1)NC(=O)[C@@H]1C[C@@H](O)CN1C(=O)[C@H](C)NC(=O)[C@H](CC(C)C)NC(=O)[C@@H](NC(=O)[C@H](CCC(=O)O)NC(=O)[C@H](CC(C)C)NC(=O)[C@H](CC(=O)O)NC(=O)[C@H](CC(C)C)NC(=O)[C@H](CCC(=O)O)NC(=O)CCCC[C@@H]1SC[C@@H]2NC(=O)N[C@@H]21)[C@@H](C)O)C(=O)N1CCC[C@H]1C(=O)N[C@@H](CCSC)C(=O)N[C@@H](CC(=O)O)C(=O)N[C@@H](CCCNC(=N)N)C(=O)N[C@@H](CCC(=O)O)C(=O)N[C@@H](CC(=O)O)C(=O)N[C@@H](Cc1ccccc1)C(=O)N[C@@H](CCC(N)=O)C(N)=O [HIF-2αOH (G537R)] | 30000 | 3.0 ± 0.2 x10^4 Ms^−1 |  | 
2 | CC[C@H](C)[C@H](NC(=O)[C@H](Cc1ccc(O)cc1)NC(=O)[C@@H]1C[C@@H](O)CN1C(=O)[C@H](C)NC(=O)[C@H](CC(C)C)NC(=O)[C@@H](NC(=O)[C@H](CCC(=O)O)NC(=O)[C@H](CC(C)C)NC(=O)[C@H](CC(=O)O)NC(=O)[C@H](CC(C)C)NC(=O)[C@H](CCC(=O)O)NC(=O)CCCC[C@@H]1SC[C@@H]2NC(=O)N[C@@H]21)[C@@H](C)O)C(=O)N1CCC[C@H]1C(=O)N[C@@H](CCSC)C(=O)N[C@@H](CC(=O)O)C(=O)NCC(=O)N[C@@H](CCC(=O)O)C(=O)N[C@@H](CC(=O)O)C(=O)N[C@@H](CC(C)C)C(=O)N[C@@H](CCC(N)=O)C(N)=O [HIF-2αOH (F540L)] | 31000 | 3.1 ± 0.3 x10^4 Ms^−1 |  | 
3 | Bio-HIF-2α(A530V): unmodified HIF-2α peptide (523–542) with A530V mutation (Biotin-ELDLETLVPYIPMDGEDFQL; UniProt Q99814 523-542, looked up, fragment A530V) |  |  | only minimally able to bind pVHL | 
4 | CC[C@H](C)[C@H](NC(=O)[C@H](Cc1ccc(O)cc1)NC(=O)[C@@H]1C[C@@H](O)CN1C(=O)[C@@H](NC(=O)[C@H](CC(C)C)NC(=O)[C@@H](NC(=O)[C@H](CCC(=O)O)NC(=O)[C@H](CC(C)C)NC(=O)[C@H](CC(=O)O)NC(=O)[C@H](CC(C)C)NC(=O)[C@H](CCC(=O)O)NC(=O)CCCC[C@@H]1SC[C@@H]2NC(=O)N[C@@H]21)[C@@H](C)O)C(C)C)C(=O)N1CCC[C@H]1C(=O)N[C@@H](CCSC)C(=O)N[C@@H](CC(=O)O)C(=O)NCC(=O)N[C@@H](CCC(=O)O)C(=O)N[C@@H](CC(=O)O)C(=O)N[C@@H](Cc1ccccc1)C(=O)N[C@@H](CCC(N)=O)C(N)=O [HIF-2αOH (A530V)] |  | 2.7 ± 0.2 x10^4 Ms^−1 |  | 
5 | Bio-HIF-2α(A530T): unmodified HIF-2α peptide (523–542) with A530T mutation (Biotin-ELDLETLTPYIPMDGEDFQL-NH2; SMILES CC[C@H](C)[C@H](NC(=O)[C@H](Cc1ccc(O)cc1)NC(=O)[C@@H]1CCCN1C(=O)[C@@H](NC(=O)[C@H](CC(C)C)NC(=O)[C@@H](NC(=O)[C@H](CCC(=O)O)NC(=O)[C@H](CC(C)C)NC(=O)[C@H](CC(=O)O)NC(=O)[C@H](CC(C)C)NC(=O)[C@H](CCC(=O)O)NC(=O)CCCC[C@@H]1SC[C@@H]2NC(=O)N[C@@H]21)[C@@H](C)O)[C@@H](C)O)C(=O)N1CCC[C@H]1C(=O)N[C@@H](CCSC)C(=O)N[C@@H](CC(=O)O)C(=O)NCC(=O)N[C@@H](CCC(=O)O)C(=O)N[C@@H](CC(=O)O)C(=O)N[C@@H](Cc1ccccc1)C(=O)N[C@@H](CCC(N)=O)C(=O)N[C@@H](CC(C)C)C(N)=O) |  |  | only minimally able to bind pVHL | 
6 | CC[C@H](C)[C@H](NC(=O)[C@H](Cc1ccc(O)cc1)NC(=O)[C@@H]1C[C@@H](O)CN1C(=O)[C@H](C)NC(=O)[C@H](CC(C)C)NC(=O)[C@@H](NC(=O)[C@H](CCC(=O)O)NC(=O)[C@H](CC(C)C)NC(=O)[C@H](CC(=O)O)NC(=O)[C@H](CC(C)C)NC(=O)[C@H](CCC(=O)O)NC(=O)CCCC[C@@H]1SC[C@@H]2NC(=O)N[C@@H]21)[C@@H](C)O)C(=O)N1CCC[C@H]1C(=O)N[C@@H](CCSC)C(=O)N[C@@H](CC(=O)O)C(=O)NCC(=O)N[C@@H](CCC(=O)O)C(=O)N[C@@H](CCC(=O)O)C(=O)N[C@@H](Cc1ccccc1)C(=O)N[C@@H](CCC(N)=O)C(N)=O [HIF-2αOH (D539E)] |  | 3.6 ± 0.05 x10^4 Ms^−1 |  | little defect
7 | CC[C@H](C)[C@H](NC(=O)[C@H](CS)NC(=O)[C@@H]1C[C@@H](O)CN1C(=O)[C@H](C)NC(=O)[C@H](CC(C)C)NC(=O)[C@@H](NC(=O)[C@H](CCC(=O)O)NC(=O)[C@H](CC(C)C)NC(=O)[C@H](CC(=O)O)NC(=O)[C@H](CC(C)C)NC(=O)[C@H](CCC(=O)O)NC(=O)CCCC[C@@H]1SC[C@@H]2NC(=O)N[C@@H]21)[C@@H](C)O)C(=O)N1CCC[C@H]1C(=O)N[C@@H](CCSC)C(=O)N[C@@H](CC(=O)O)C(=O)NCC(=O)N[C@@H](CCC(=O)O)C(=O)N[C@@H](CC(=O)O)C(=O)N[C@@H](Cc1ccccc1)C(=O)N[C@@H](CCC(N)=O)C(N)=O [HIF-2αOH (Y532C)] |  | 4.9 ± 0.2 x10^4 Ms^−1 |  | 
8 | CC[C@H](C)[C@H](NC(=O)[C@H](Cc1ccc(O)cc1)NC(=O)[C@@H]1C[C@@H](O)CN1C(=O)[C@@H](NC(=O)[C@H](CC(C)C)NC(=O)[C@@H](NC(=O)[C@H](CCC(=O)O)NC(=O)[C@H](CC(C)C)NC(=O)[C@H](CC(=O)O)NC(=O)[C@H](CC(C)C)NC(=O)[C@H](CCC(=O)O)NC(=O)CCCC[C@@H]1SC[C@@H]2NC(=O)N[C@@H]21)[C@@H](C)O)[C@@H](C)O)C(=O)N1CCC[C@H]1C(=O)N[C@@H](CCSC)C(=O)N[C@@H](CC(=O)O)C(=O)NCC(=O)N[C@@H](CCC(=O)O)C(=O)N[C@@H](CC(=O)O)C(=O)N[C@@H](Cc1ccccc1)C(=O)N[C@@H](CCC(N)=O)C(N)=O [HIF-2αOH (A530T)] |  | 3.4 ± 0.3 x10^4 Ms^−1 |  | 
9 | HIF-2α (wild-type): biotinylated non-hydroxylated wild-type HIF-2α peptide, residues 523–541 |  |  | failed to bind pVHL | 
10 | CC[C@H](C)[C@H](NC(=O)[C@H](Cc1ccc(O)cc1)NC(=O)[C@@H]1C[C@@H](O)CN1C(=O)[C@H](C)NC(=O)[C@H](CC(C)C)NC(=O)[C@@H](NC(=O)[C@H](CCC(=O)O)NC(=O)[C@H](CC(C)C)NC(=O)[C@H](CC(=O)O)NC(=O)[C@H](CC(C)C)NC(=O)[C@@H](N)CCC(=O)O)[C@@H](C)O)C(=O)N1CCC[C@H]1C(=O)N[C@@H](CCSC)C(=O)N[C@@H](CC(=O)O)C(=O)NCC(=O)N[C@@H](CCC(=O)O)C(=O)N[C@@H](CC(=O)O)C(=O)N[C@@H](Cc1ccccc1)C(=O)N[C@@H](CCC(N)=O)C(N)=O [HIF-2αOH (wild-type)] | 41000 | 4.1 ± 0.4 x10^4 Ms^−1 |  | 
11 | CC[C@H](C)[C@H](NC(=O)[C@@H]1CCCN1C(=O)[C@@H](NC(=O)[C@H](Cc1ccc(O)cc1)NC(=O)[C@@H]1C[C@@H](O)CN1C(=O)[C@H](C)NC(=O)[C@H](CC(C)C)NC(=O)[C@@H](NC(=O)[C@H](CCC(=O)O)NC(=O)[C@H](CC(C)C)NC(=O)[C@H](CC(=O)O)NC(=O)[C@H](CC(C)C)NC(=O)[C@H](CCC(=O)O)NC(=O)CCCC[C@@H]1SC[C@@H]2NC(=O)N[C@@H]21)[C@@H](C)O)[C@@H](C)CC)C(=O)N[C@@H](CC(=O)O)C(=O)NCC(=O)N[C@@H](CCC(=O)O)C(=O)N[C@@H](CC(=O)O)C(=O)N[C@@H](Cc1ccccc1)C(=O)N[C@@H](CCC(N)=O)C(N)=O [HIF-2αOH (M535I)] |  | 3.1 ± 0.2 x10^4 Ms^−1 |  | little defect
12 | HIF-2α L542P peptide: unmodified HIF-2α peptide (523–542) with class 1 mutation L542P (Biotin-ELDLETLAPYIPMDGEDFQP-NH2; SMILES CC[C@H](C)[C@H](NC(=O)[C@H](Cc1ccc(O)cc1)NC(=O)[C@@H]1CCCN1C(=O)[C@H](C)NC(=O)[C@H](CC(C)C)NC(=O)[C@@H](NC(=O)[C@H](CCC(=O)O)NC(=O)[C@H](CC(C)C)NC(=O)[C@H](CC(=O)O)NC(=O)[C@H](CC(C)C)NC(=O)[C@H](CCC(=O)O)NC(=O)CCCC[C@@H]1SC[C@@H]2NC(=O)N[C@@H]21)[C@@H](C)O)C(=O)N1CCC[C@H]1C(=O)N[C@@H](CCSC)C(=O)N[C@@H](CC(=O)O)C(=O)NCC(=O)N[C@@H](CCC(=O)O)C(=O)N[C@@H](CC(=O)O)C(=O)N[C@@H](Cc1ccccc1)C(=O)N[C@@H](CCC(N)=O)C(=O)N1CCC[C@H]1C(N)=O) |  |  | failed to bind pVHL | 
